pEC50: −log10 of the molar value. Results filed as inconclusive are left out. Activity calls are given as the source filed them. No rule for the calls is given here.

The target in this experiment is Luciferin 4-monooxygenase (Photinus pyralis) (UniProt P08659). Description: Luciferase translation or activity inhibitors, H4 neuroglioblastoma cells, luminescence dose response (AID 1990). As to conditions: H4 neuroglioma cells.
Sequence of Luciferin 4-monooxygenase (Photinus pyralis) (P08659 whole entry, looked up): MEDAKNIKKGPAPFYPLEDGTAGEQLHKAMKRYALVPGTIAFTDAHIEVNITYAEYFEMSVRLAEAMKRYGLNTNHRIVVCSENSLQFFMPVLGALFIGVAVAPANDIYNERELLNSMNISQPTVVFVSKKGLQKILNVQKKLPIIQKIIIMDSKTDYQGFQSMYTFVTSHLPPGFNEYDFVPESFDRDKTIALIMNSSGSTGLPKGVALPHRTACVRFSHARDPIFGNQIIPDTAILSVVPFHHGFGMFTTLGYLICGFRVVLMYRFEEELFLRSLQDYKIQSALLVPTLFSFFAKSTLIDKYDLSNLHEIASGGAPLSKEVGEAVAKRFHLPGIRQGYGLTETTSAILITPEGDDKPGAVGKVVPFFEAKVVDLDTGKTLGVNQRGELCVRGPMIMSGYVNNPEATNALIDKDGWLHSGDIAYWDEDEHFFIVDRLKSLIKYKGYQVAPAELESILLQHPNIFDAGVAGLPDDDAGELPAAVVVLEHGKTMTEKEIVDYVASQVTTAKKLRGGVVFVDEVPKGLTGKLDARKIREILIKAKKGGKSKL
Consider `COc1ccc(O)c2c(=O)c3c(OC)cc4c(c3oc12)C1C=COC1O4` (stereo not drawn), for which the pEC50 was over 7.00. As to `C#CCOCCOCCOCCNc1nc(N2CCN(C(=O)CCCCCCCCCCNC(=O)[C@H](CO)n3cc(CCCSC)nn3)CC2)nc(N2CCN(C(=O)CCCCCCCCCCNC(=O)[C@H](CCCCN)n3cc(C[C@@H](C)CC)nn3)CC2)n1`, the pEC50 was 5.14. `C=C(C=O)CC1CC(O)[C@]2(C)OC3CC4OC5C[C@]6(C)O[C@]7(C)CCC8OC9C[C@]%10(C)OC%11C(C)=CC(=O)OC%11CC%10OC9C[C@@H](C)C8OC7CC6O[C@]5(C)CC5OC5C4OC3CC2O1` (stereo partly drawn): the EC50 was > 12 µM (inactive).

As usually defined, the pEC50 is the EC50 on a negative log10 scale, so that one unit is a factor of ten. As a reminder, the EC50 is the concentration that produces a half-maximal response.

Values taken from PubChem BioAssay AID1990 (Broad Institute, 2009).
